Laboratory results as given in PubChem BioAssay AID248 (DTP/NCI, 2004).
“And” between values parts separate entries of the source, which are not always exact repeats. Identical values can stand only once. Inconclusive results and toxic doses are left out. Cut-off read from the data, not from the text of the source: active = T/C of 150% or more; inactive = T/C below 125%.

System: L1210 leukemia ip in BDF1 mice, survival T/C
Assay: NCI In Vivo Anticancer Drug Screen. Data for tumor model L1210 Leukemia (intraperitoneal) in B6D2F1 (BDF1) mice
Conditions: higher = longer survival
Procedure, shortened: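 In this screen, tumor-bearing mice given compound are compared to those given vehicle, and their survival values are reported as a treated-to-control quotient.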

[1] = endpoint: mean survival time, dose: 50.0 mg/kg/injection, schedule: Q01DX009 (ip), vehicle: saline
[2] = endpoint: mean survival time, dose: 50.0 mg/kg/injection, schedule: Q01DX009 (ip), vehicle: Klucel (hydroxypropylcellulose) (HPC)
[3] = endpoint: mean survival time, dose: 100.0 mg/kg/injection, schedule: Q01DX009 (ip), vehicle: Klucel (hydroxypropylcellulose) (HPC)
[4] = endpoint: mean survival time, dose: 100.0 mg/kg/injection, schedule: Q04DX003 (ip), vehicle: Klucel (hydroxypropylcellulose) (HPC)
[5] = endpoint: mean survival time, dose: 200.0 mg/kg/injection, schedule: Q01DX009 (ip), vehicle: Klucel (hydroxypropylcellulose) (HPC)
[6] = endpoint: mean survival time, dose: 200.0 mg/kg/injection, schedule: Q04DX003 (ip), vehicle: Klucel (hydroxypropylcellulose) (HPC)
[7] = endpoint: mean survival time, dose: 100.0 mg/kg/injection, schedule: Q04DX003 (ip), vehicle: saline with Tween-80
[8] = endpoint: mean survival time, dose: 200.0 mg/kg/injection, schedule: Q04DX003 (ip), vehicle: saline with Tween-80
[9] = endpoint: mean survival time, dose: 400.0 mg/kg/injection, schedule: Q04DX003 (ip), vehicle: saline with Tween-80
[10] = endpoint: mean survival time, dose: 100.0 mg/kg/injection, schedule: Q04DX003 (ip), vehicle: saline
[11] = endpoint: mean survival time, dose: 200.0 mg/kg/injection, schedule: Q04DX003 (ip), vehicle: saline
[12] = endpoint: mean survival time, dose: 100.0 mg/kg/injection, schedule: Q04DX002 (ip), vehicle: Klucel (hydroxypropylcellulose) (HPC)
[13] = endpoint: mean survival time, dose: 200.0 mg/kg/injection, schedule: Q04DX002 (ip), vehicle: Klucel (hydroxypropylcellulose) (HPC)
[14] = endpoint: mean survival time, dose: 400.0 mg/kg/injection, schedule: Q04DX002 (ip), vehicle: Klucel (hydroxypropylcellulose) (HPC)
[15] = endpoint: mean survival time, dose: 50.0 mg/kg/injection, schedule: Q01DX009 (ip), vehicle: saline with Tween-80
[16] = endpoint: mean survival time, dose: 100.0 mg/kg/injection, schedule: Q01DX009 (ip), vehicle: saline with Tween-80
[17] = endpoint: mean survival time, dose: 200.0 mg/kg/injection, schedule: Q01DX009 (ip), vehicle: saline with Tween-80
[18] = endpoint: mean survival time, dose: 50.0 mg/kg/injection, schedule: Q01DX001 (ip), vehicle: saline
[19] = endpoint: mean survival time, dose: 100.0 mg/kg/injection, schedule: Q01DX001 (ip), vehicle: saline
[20] = endpoint: mean survival time, dose: 200.0 mg/kg/injection, schedule: Q01DX001 (ip), vehicle: saline
[21] = endpoint: mean survival time, dose: 400.0 mg/kg/injection, schedule: Q01DX001 (ip), vehicle: saline
[22] = endpoint: mean survival time, dose: 400.0 mg/kg/injection, schedule: Q01DX009 (ip), vehicle: Klucel (hydroxypropylcellulose) (HPC)

Measured: T/C

CC1=NCCN1CCN=C(N)CCl
inactive: endpoint: mean survival time, dose: 12.5 mg/kg/injection, schedule: Q04DX002 (ip), vehicle: saline 107 % of control | endpoint: mean survival time, dose: 25.0 mg/kg/injection, schedule: Q01DX009 (ip), vehicle: saline 111 % of control | endpoint: mean survival time, dose: 25.0 mg/kg/injection, schedule: Q04DX002 (ip), vehicle: saline 91 % of control | [1] 101 % of control | endpoint: mean survival time, dose: 50.0 mg/kg/injection, schedule: Q04DX002 (ip), vehicle: saline 91 % of control

COc1cc(N(CCCl)CCCl)ccc1CN1CCCN(Cc2ccc(N(CCCl)CCCl)cc2OC)C1c1ccccc1O
inactive: [2] 96 % of control | [3] 109 % of control | [4] 110 % of control | [5] 90 % of control | [6] 103 % of control

Nc1ncnc2c1nnn2C1CC2COP(=O)(O)OC2C1O (stereo not given)
inactive: endpoint: mean survival time, dose: 44.0 mg/kg/injection, schedule: Q01DX007 (ip), vehicle: saline with Tween-80 103 % of control | endpoint: mean survival time, dose: 67.0 mg/kg/injection, schedule: Q01DX007 (ip), vehicle: saline with Tween-80 114 % of control | endpoint: mean survival time, dose: 100.0 mg/kg/injection, schedule: Q01DX007 (ip), vehicle: saline with Tween-80 101 % of control

NC(=O)N/N=C/c1[nH]c(=S)[nH]c(=O)c1Cc1ccccc1
inactive: [7] 101 % of control | [8] 94 % of control | [9] 97 % of control

C=C(C)CN
inactive: [1] 109 % of control | endpoint: mean survival time, dose: 100.0 mg/kg/injection, schedule: Q01DX009 (ip), vehicle: saline 117 % of control | [10] 93 % of control | [11] 106 % of control

CC1N=C(c2ccccc2)C(c2ccccc2)=NC1C (stereo not given)
inactive: [7] 94 % of control | [8] 101 % of control | [9] 101 % of control

CCOC(=O)c1cc(C)n(-c2ccc(C(=O)O)cc2)c1C
inactive: [2] 97 % of control | [3] 95 % of control | [4] 98 % of control | [5] 95 % of control | [6] 91 % of control

Cc1cnc(-n2cc(C)c(-c3ccccc3O)n2)nc1-c1ccccc1O
inactive: [12] 96 % of control | [13] 88 % of control | [14] 100 % of control

CC1(C)C2CCC(I)(C2)C1I (stereo not given)
inactive: endpoint: mean survival time, dose: 100.0 mg/kg/injection, schedule: Q01DX001 (ip), vehicle: saline with Tween-80 93 % of control | endpoint: mean survival time, dose: 200.0 mg/kg/injection, schedule: Q01DX001 (ip), vehicle: saline with Tween-80 90 % of control | endpoint: mean survival time, dose: 400.0 mg/kg/injection, schedule: Q01DX001 (ip), vehicle: saline with Tween-80 93 % of control

O=C1C=C[C@H](O)[C@@]2(CO)O[C@@H]12
inactive: endpoint: median survival time, dose: 0.62 mg/kg/injection, schedule: Q01DX009 (ip), vehicle: saline with Tween-80 101 % of control | endpoint: median survival time, dose: 1.25 mg/kg/injection, schedule: Q01DX009 (ip), vehicle: saline with Tween-80 108 % of control | endpoint: median survival time, dose: 2.5 mg/kg/injection, schedule: Q01DX009 (ip), vehicle: saline with Tween-80 113 % of control | endpoint: median survival time, dose: 5.0 mg/kg/injection, schedule: Q01DX009 (ip), vehicle: saline with Tween-80 120 % of control | endpoint: median survival time, dose: 10.0 mg/kg/injection, schedule: Q01DX009 (ip), vehicle: saline with Tween-80 120 % of control

O=C(CC(O)(C(F)(F)Cl)C(F)(F)Cl)c1cccc([N+](=O)[O-])c1
inactive: [15] 98 % of control | endpoint: mean survival time, dose: 50.0 mg/kg/injection, schedule: Q04DX003 (ip), vehicle: saline with Tween-80 98 % of control | [16] 98 % of control | [7] 98 % of control | [17] 95 % of control | [8] 98 % of control | [9] 89 % of control

CC(Cc1ccccc1)N(C)C(=O)CN1C(=O)c2ccccc2C1=O (stereo not given)
inactive: [18] 103 % of control | [19] 117 % of control | [20] 109 % of control | [21] 91 % of control

O=C(CN1CCCCC1Cl)c1ccccc1 (stereo not given)
inactive: [19] 105 % of control | [10] 100 % of control

O=C1c2cccc(Cl)c2C(=O)c2c(Cl)cccc21
inactive: [12] 100 % of control and 91 % of control | [13] 94 % of control | [14] 102 % of control and 113 % of control

Sc1ccc2ccccc2c1CN(Cc1ccccc1)Cc1c(S)ccc2ccccc12
inactive: [19] 91 % of control | [20] 90 % of control | [21] 91 % of control

O=C(N/N=C\c1ccc(-c2ccccc2)cc1)N/N=C/c1ccc(-c2ccccc2)cc1
inactive: endpoint: mean survival time, dose: 100.0 mg/kg/injection, schedule: Q04DX003 (ip), vehicle: carboxymethylcellulose (CMC) 90 % of control | endpoint: mean survival time, dose: 200.0 mg/kg/injection, schedule: Q04DX003 (ip), vehicle: carboxymethylcellulose (CMC) 87 % of control

NC(=O)c1ccccc1OC(=O)Nc1ccccc1
inactive: [2] 103 % of control | [3] 101 % of control | [12] 89 % of control | [13] 99 % of control

COc1ccc(OC)c(-c2nnc(Nc3ccc(S(=O)(=O)N4CCCCC4)cc3)s2)c1
inactive: [3] 94 % of control | [5] 91 % of control | [22] 91 % of control

Nc1cc(=O)[nH]c(=S)[nH]1
inactive: endpoint: mean survival time, dose: 100.0 mg/kg/injection, schedule: Q04DX002 (ip), vehicle: saline 99 % of control | endpoint: mean survival time, dose: 200.0 mg/kg/injection, schedule: Q04DX002 (ip), vehicle: saline 92 % of control | endpoint: mean survival time, dose: 400.0 mg/kg/injection, schedule: Q04DX002 (ip), vehicle: saline 101 % of control

CCCCC(CC)COC(=O)CC(O)C(=O)OCC(CC)CCCC (stereo not given)
inactive: [3] 103 % of control | [5] 100 % of control | [22] 103 % of control

CCCCOC(N)=O
inactive: [18] 105 % of control | [19] 95 % of control | [7] 95 % of control and 100 % of control | [20] 93 % of control | [8] 95 % of control and 97 % of control | [21] 98 % of control | [9] 97 % of control and 102 % of control

COc1ccc(-n2c(=S)[nH]c3ccccc3c2=O)cc1
inactive: endpoint: mean survival time, dose: 100.0 mg/kg/injection, schedule: Q01DX009 (ip), vehicle: other 107 % of control | [10] 95 % of control | endpoint: mean survival time, dose: 200.0 mg/kg/injection, schedule: Q01DX009 (ip), vehicle: other 96 % of control | [11] 91 % of control | endpoint: mean survival time, dose: 400.0 mg/kg/injection, schedule: Q01DX009 (ip), vehicle: other 102 % of control | endpoint: mean survival time, dose: 400.0 mg/kg/injection, schedule: Q04DX003 (ip), vehicle: saline 91 % of control

Nc1nc(Cl)cc2c1ncn2C1OC(CO)C(O)C1O (stereo not given)
inactive: endpoint: mean survival time, dose: 100.0 mg/kg/injection, schedule: Q01DX005 (ip), vehicle: saline 105 % of control | endpoint: mean survival time, dose: 200.0 mg/kg/injection, schedule: Q01DX005 (ip), vehicle: saline 107 % of control

CC1=CC(=O)CC(C)(C)C1(O)/C=C/C(C)=C/C(=O)O (stereo not given)
inactive: endpoint: mean survival time, dose: 12.5 mg/kg/injection, schedule: Q04DX003 (ip), vehicle: Klucel (hydroxypropylcellulose) (HPC) 93 % of control | endpoint: mean survival time, dose: 25.0 mg/kg/injection, schedule: Q01DX009 (ip), vehicle: Klucel (hydroxypropylcellulose) (HPC) 87 % of control | endpoint: mean survival time, dose: 25.0 mg/kg/injection, schedule: Q04DX003 (ip), vehicle: Klucel (hydroxypropylcellulose) (HPC) 96 % of control | [2] 88 % of control | endpoint: mean survival time, dose: 50.0 mg/kg/injection, schedule: Q04DX003 (ip), vehicle: Klucel (hydroxypropylcellulose) (HPC) 88 % of control | [3] 93 % of control | [4] 96 % of control | [5] 92 % of control | [6] 98 % of control | [22] 95 % of control | endpoint: mean survival time, dose: 400.0 mg/kg/injection, schedule: Q04DX003 (ip), vehicle: Klucel (hydroxypropylcellulose) (HPC) 102 % of control

CC(C)(C)OC(=O)NC(CSCc1ccccc1)C(=O)O (stereo not given)
inactive: [2] 98 % of control | [3] 92 % of control | [16] 91 % of control | [5] 98 % of control | [17] 89 % of control

Cc1nc2c(O)ccc(O)c2nc1C
inactive: endpoint: mean survival time, dose: 3.12 mg/kg/injection, schedule: Q04DX003 (ip), vehicle: saline with Tween-80 100 % of control | endpoint: mean survival time, dose: 6.25 mg/kg/injection, schedule: Q04DX003 (ip), vehicle: saline with Tween-80 96 % of control | endpoint: mean survival time, dose: 12.5 mg/kg/injection, schedule: Q01DX009 (ip), vehicle: saline with Tween-80 94 % of control | endpoint: mean survival time, dose: 12.5 mg/kg/injection, schedule: Q04DX003 (ip), vehicle: saline with Tween-80 100 % of control | endpoint: mean survival time, dose: 25.0 mg/kg/injection, schedule: Q01DX009 (ip), vehicle: saline with Tween-80 96 % of control | [15] 94 % of control
